Measured values published in ChEMBL document CHEMBL4828751, “Discovery of novel tubulin/HDAC dual-targeting inhibitors with strong antitumor and antiangiogenic potency” (Eur J Med Chem, 2021).

How the values were obtained:
Assay type in all cases: functional, cell-based
[1] = system: U-937; assay: Antiproliferative activity against human U-937 cells assessed as cell growth inhibition after 72 hrs by CCK8 assay; details: U-937, 72 h
[2] = system: A549; assay: Antiproliferative activity against human A549 cells assessed as cell growth inhibition after 72 hrs by SRB assay; details: A549, 72 h
[3] = system: MGC-803; assay: Antiproliferative activity against human MGC-803 cells assessed as cell growth inhibition after 72 hrs by SRB assay; details: MGC-803, 72 h
[4] = system: HepG2; assay: Antiproliferative activity against human HepG2 cells assessed as cell growth inhibition after 72 hrs by SRB assay; details: HepG2, 72 h
[5] = system: MCF7; assay: Antiproliferative activity against human MCF7 cells assessed as cell growth inhibition after 72 hrs by SRB assay; details: MCF7, 72 h
[6] = system: HeLa; assay: Antiproliferative activity against human HeLa cells assessed as cell growth inhibition after 72 hrs by SRB assay

Structure (SMILES)	IC50 [1]	IC50 [2]	IC50 [3]	IC50 [4]	IC50 [5]	IC50 [6]
COc1ccc(C(=O)c2cc(OC)c(OC)c(OC)c2)cc1OCc1ccc(C(=O)NO)cc1	> 5 µM	> 5 µM	> 5 µM	> 5 µM	> 5 µM	> 5 µM
COc1ccc(/C=C\c2cc(OC)c(OC)c(OC)c2)cc1Oc1ccc(C(=O)NO)cn1	3.32 µM	2.44 µM	1.09 µM	> 5 µM	0.485 µM	2.44 µM
COc1ccc(/C=C\c2cc(OC)c(OC)c(OC)c2)cc1/C=C/C(=O)NO	0.805 µM	0.254 µM	0.208 µM	0.252 µM	0.158 µM	0.257 µM
COc1ccc(/C=C\c2cc(OC)c(OC)c(OC)c2)cc1Oc1ccc(C(=O)NO)cc1	3.5 µM	1.47 µM	0.927 µM	4.55 µM	1.47 µM	1.47 µM
COc1ccc(/C=C\c2cc(OC)c(OC)c(OC)c2)cc1Oc1ccc(C(C)(C)C(=O)Nc2ccccc2N)cc1	> 5 µM	> 5 µM	> 5 µM	> 5 µM	> 5 µM	> 5 µM
COc1ccc(/C=C\c2cc(OC)c(OC)c(OC)c2)cc1OCc1ccc(C(=O)Nc2ccccc2N)cc1	1.79 µM	2.21 µM	0.604 µM	3.41 µM	1.47 µM	2.21 µM
COc1ccc(C(=O)c2cc(OC)c(OC)c(OC)c2)cc1OCCCCC(=O)NO	> 5 µM	> 5 µM	> 5 µM	> 5 µM	> 5 µM	> 5 µM
COc1ccc(/C=C\c2cc(OC)c(OC)c(OC)c2)cc1Oc1ccc(C(C)(C)C(=O)NO)cc1	> 5 µM	> 5 µM	> 5 µM	> 5 µM	> 5 µM	> 5 µM
COc1ccc(C(=O)c2cc(OC)c(OC)c(OC)c2)cc1Oc1ccc(C(=O)NO)cn1	> 5 µM	> 5 µM	> 5 µM	> 5 µM	> 5 µM	> 5 µM
COc1ccc(/C=C\c2cc(OC)c(OC)c(OC)c2)cc1Oc1ccc(C(=O)Nc2ccccc2N)cn1	3.22 µM	> 5 µM	1.29 µM	4.92 µM	2.61 µM	> 5 µM

Further lines, results first:

IC50 [1]	IC50 [2]	IC50 [3]	IC50 [4]	IC50 [5]	IC50 [6]	Structure (SMILES)
> 5 µM	> 5 µM	> 5 µM	> 5 µM	> 5 µM	> 5 µM	COc1ccc(C(=O)c2cc(OC)c(OC)c(OC)c2)cc1OCCCCC(=O)Nc1ccccc1N
0.758 µM	> 5 µM	> 5 µM	> 5 µM	> 5 µM	> 5 µM	COc1ccc(C(=O)c2cc(OC)c(OC)c(OC)c2)cc1OCC(=O)Nc1ccccc1N
5.78 µM	3.24 µM	> 5 µM	> 5 µM	4.28 µM	0.74 µM	COc1ccc(/C=C\c2cc(OC)c(OC)c(OC)c2)cc1OCCCC(=O)Nc1ccccc1N
1.68 µM	3.21 µM	1.61 µM	1.56 µM	1.18 µM	1.04 µM	COc1ccc(C(=O)c2cc(OC)c(OC)c(OC)c2)c(/C=C/C(=O)Nc2ccccc2N)c1
> 5 µM	> 5 µM	> 5 µM	> 5 µM	> 5 µM	> 5 µM	COc1ccc(C(=O)c2cc(OC)c(OC)c(OC)c2)cc1Oc1ccc(C(=O)Nc2ccccc2N)cn1
> 5 µM	> 5 µM	> 5 µM	> 5 µM	> 5 µM	> 5 µM	COc1ccc(C(=O)c2cc(OC)c(OC)c(OC)c2)cc1OCc1ccc(C(=O)Nc2ccccc2N)cc1
> 5 µM	> 5 µM	> 5 µM	> 5 µM	> 5 µM	> 5 µM	COc1ccc(C(=O)c2cc(OC)c(OC)c(OC)c2)cc1Oc1ccc(C(=O)Nc2ccccc2N)cc1
